Data as given in patent US11077090B2, “Compounds and compositions and uses thereof” (Sunovion Pharmaceuticals Inc., priority 2016, dated 2021).

How the values were obtained:
compound-treated mice = assay: Neuropharmacological assay (SmartCube): behavioral activity signature and minimal effective dose; assay type: in vivo; conditions: for AD: ADHD (probability of activity signature) / AG: analgesic (probability of activity signature) / AX: anxiolytic (probability of activity signature) / CE: cognitive enhancer (probability of activity signature) / DP: anti-depressant (probability of activity signature) / MS: mood stabilizer (probability of activity signature) / PS: anti-psychotic (probability of activity signature) / SD: sedative hypnotic (probability of activity signature) / UN: uncharacterized CNS activity (probability of activity signature): i.p. 15 min before test, most efficacious dose(s)
Procedure, shortened: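 Video-recorded behavior is compared algorithmically against a reference-compound database, yielding class probabilities (best dose reported). Compounds given i.p. in NMP/PEG/propylene glycol 15 min pre-test at 3 doses; potency as MED, the dose (mpk, range usually 0.3–30) reaching ≥50% total activity.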

Adult male AJ mice = assay: Tail suspension test (TST); assay type: in vivo; set-up: key: −: No decrease in Mean Total Time Immobile; +: Significant decrease in Mean Total Time Immobile (P < 0.05 vs vehicle)
Excerpt: The tail suspension test (TST) is a rodent screening test for potential (human) antidepressant drugs. It is based on the assumption that an animal will actively try to escape an aversive (stressful) stimulus. If escape is impossible, the animal will eventually stop trying (“give up”). In the TST, a mouse is suspended by the tail so that its body dangles in the air, head downward. Mice initially struggle to face upward and climb to a solid surface. When the animal stops struggling and hangs immobile it is considered to have “given up”. Shorter periods of immobility are characteristic of antidepressant-like activity. Accordingly, longer periods of immobility are considered indicative of a depressive-like state. It has been shown that treatment with an antidepressant drug will decrease the time the animal spends immobile. See generally L. Steru et al., Psychopharmacology (Berl). 1985; 85(3):367-70; B. Thierry et al., Psychopharmacology 1986; 90:284-85.
Adult male AJ mice from Jackson Laboratories received vehicle (sterile water) or test compound orally by gavage, or the positive control desipramine (20 mg/kg, i.p.), in 10 mL/kg injection volumes, 30 min before being subjected to the Tail Suspension Test. In this test, mice are placed in the Tail Suspension chambers (white polyvinylchloride cubicles measuring 33×33×31.75 cm Med Associates, Inc. St. Albans, Vt.) by a piece of transparent (Scotch®) tape attached to the tail, from about the mid-tail, with approximately 2 cm of tape past the end of the tail for 10 min during which the time spent immobile is measured. A reduction in total time immobile relative to the vehicle condition indicates an antidepressant drug-like response.

[1] = MED = dose having 50% or more total activity

Row | Compound | minimal effective dose (compound-treated mice; Mus musculus, ip, MED = dose having 50% or more total activity, read-out: Potency: minimal effective dose (MED)) [mg/kg] | AD: ADHD (probability of activity signature) (compound-treated mice) | AG: analgesic (probability of activity signature) (compound-treated mice) | AX: anxiolytic (probability of activity signature) (compound-treated mice) | CE: cognitive enhancer (probability of activity signature) (compound-treated mice) | DP: anti-depressant (probability of activity signature) (compound-treated mice) | MS: mood stabilizer (probability of activity signature) (compound-treated mice) | PS: anti-psychotic (probability of activity signature) (compound-treated mice) | SD: sedative hypnotic (probability of activity signature) (compound-treated mice) | UN: uncharacterized CNS activity (probability of activity signature) (compound-treated mice) | Mean Total Time Immobile (Adult male AJ mice; 3 mg/kg PO) | Mean Total Time Immobile (Adult male AJ mice; 10 mg/kg PO) | Mean Total Time Immobile (Adult male AJ mice; 30 mg/kg PO) | Potency: minimal effective dose (MED) (compound-treated mice; [1])
1 | N[C@@H]1COCc2ccccc21 (single isomer, unassigned) [Example 111] | 3 to 10 | + (LOQ ≤ + <5%) | ++ (5% ≤ ++ <25%) | ++ (5% ≤ ++ <25%) | ++ (5% ≤ ++ <25%) | ++ (5% ≤ ++ <25%) | + (LOQ ≤ + <5%) | ++ (5% ≤ ++ <25%) | + (LOQ ≤ + <5%) | +++ (25% ≤ +++ <50%) | − | − | − | 
2 | N[C@H]1COCc2ccc(F)cc21 (single isomer, unassigned) [Example 114] |  | + (LOQ ≤ + <5%) | ++ (5% ≤ ++ <25%) | ++ (5% ≤ ++ <25%) | ++ (5% ≤ ++ <25%) | ++ (5% ≤ ++ <25%) | + (LOQ ≤ + <5%) | ++ (5% ≤ ++ <25%) | + (LOQ ≤ + <5%) | +++ (25% ≤ +++ <50%) |  | − | + | C (>10 to ≤30 mpk)
3 | N[C@@H]1COCc2ccc3ccccc3c21 (single isomer, unassigned) [Example 117] |  | + (LOQ ≤ + <5%) | ++ (5% ≤ ++ <25%) | ++ (5% ≤ ++ <25%) | ++ (5% ≤ ++ <25%) | ++ (5% ≤ ++ <25%) | ++ (5% ≤ ++ <25%) | +++ (25% ≤ +++ <50%) | + (LOQ ≤ + <5%) | + (LOQ ≤ + <5%) |  | + | − | B (>3 to 10 mpk)
4 | N[C@H]1COCc2ccc3ccccc3c21 (single isomer, unassigned) [Example 118] |  | + (LOQ ≤ + <5%) | ++ (5% ≤ ++ <25%) | ++ (5% ≤ ++ <25%) | ++ (5% ≤ ++ <25%) | +++ (25% ≤ +++ <50%) | + (LOQ ≤ + <5%) | ++ (5% ≤ ++ <25%) | ++ (5% ≤ ++ <25%) | + (LOQ ≤ + <5%) |  | − | − | B (>3 to 10 mpk)
5 | Cc1ccc2c(c1)[C@H](N)COC2 [Example 123] |  | + (LOQ ≤ + <5%) | ++ (5% ≤ ++ <25%) | ++ (5% ≤ ++ <25%) | + (LOQ ≤ + <5%) | ++ (5% ≤ ++ <25%) | + (LOQ ≤ + <5%) | ++ (5% ≤ ++ <25%) | ++ (5% ≤ ++ <25%) | +++ (25% ≤ +++ <50%) |  | − | − | A (≤3 mpk)
6 | Cc1ccc2c(c1)[C@@H](N)COC2 [Example 124] |  | + (LOQ ≤ + <5%) | ++ (5% ≤ ++ <25%) | +++ (25% ≤ +++ <50%) | ++ (5% ≤ ++ <25%) | ++ (5% ≤ ++ <25%) | + (LOQ ≤ + <5%) | ++ (5% ≤ ++ <25%) | ++ (5% ≤ ++ <25%) | +++ (25% ≤ +++ <50%) |  | − | − | B (>3 to 10 mpk)
